Source: patent publication US6664039B1, “Methods and compositions for modulating neurodegeneration” (California Institute of Technology, priority 1998, dated 2003)
Entries after “also recorded” stand apart in the source; their conditions may differ.

What was measured:
bubblegum mutant flies [1] = assay: Countercurrent phototaxis test; format: in vivo, Drosophila; details: 5 day old bubblegum raised with the oil from the larval stage
Text: Phototactic analysis. In ALD, visual loss is on of the clinical symptoms, and anatomical analysis has shown abnormalities of the optic nerve and degeneration of ganglion cell layer. Flies transformed with P-elements expressing eye pigment, as is the case for bubblegum, are phototactic. A countercurrent phototaxis test was used to examine the visual behavior of bubblegum. […] Therefore, the oil treatment can prevent the biochemical, structural, and physiological defects caused by the mutation.
Flies were placed in a countercurrent distribution apparatus and responses to light were analyzed. Each numbered tube represents the number of positive responses in a total of 5 trials. In control tests for the from-light response, neither group of flies moved away from light.

bubblegum mutant flies [2] = assay: Brain (lamina) degeneration in bubblegum mutant flies by light and electron microscopy; format: in vivo, Drosophila; details: for degeneration: male mutant flies raised in oil-containing medium from first instar larvae, 15 day-old adults
Procedure: Tissue preparation for microscopy. Fly heads were prepared by fixation in 1% paraformaldehyde+1% glutaraldehyde, postfixation in 1% osmium tetroxide, dehydration in an ethanol series, and embedding in Epon 812. For light microscopy, […] were stained with 1% toludine blue 1% Borax. For electron microscopy, ultrathin sections (80 nm) were examined with a Philips 201 electron microscope at 60 kV.
(§1) To determine whether similar dietary treatment can reduce the level of C26 and/or prevent the pathology seen in bubblegum, 2.5% of GTO oil was added to the normal corn meal-yeast-agar medium. […] However, knowing that oil treatment in ALD was not able to prevent the progression of the disease once patients had shown neurological symptoms, we decided to treat mutant flies with the oil at pre-adult stages. First instar larvae were raised in the oil-containing medium until eclosion and the adult flies were then transferred into fresh medium, still containing the oil, changed every 3 days.

bubblegum mutant flies [3] = assay: Lifespan of bubblegum mutant flies; format: in vivo, Drosophila; details: male mutant flies treated with oil from larval stage
Procedure: Mutagenesis and screen. Drosophilia lines carrying P(lacZ, w+) were screened for mutations causing reduced lifespan at 29° C.
as §1

C26 = details: ALD, feeding GTO oil, within 4 months; cited from earlier work
VLCFAs = assay: Assay of very long chain fatty acids by gas chromatography in bubblegum flies; format: in vivo, Drosophila; details: male mutant flies treated from larval stage, 15 days old, compared with parental strain
Procedure: Assay of very long chain fatty acids by gas chromatography. To determine whether bubblegum has an accumulation of VLCFAs, fatty acid analysis by gas chromatography was performed on 15 day old flies, comparing homozygous mutant flies with those of the parent strain from which bubblegum was derived.
Extracts of whole male or female flies were used for purification and methylation of fatty acids. Gas chromatography was performed with a HP-5MS column (30 m×0.25 mm, 0.25-μm film thickness) and mass spectrometry was used to analyze the fatty acid methyl esters. Identification and measurement of fatty acid concentrations were based on an oil reference standard (NHI-F) from Sigma Co. and the C15 added as an internal standard.
as §1

CCCCCCCC/C=C\CCCCCCCC(=O)OCC(COC(=O)CCCCCCC/C=C\CCCCCCCC)OC(=O)CCCCCCC/C=C\CCCCCCCC [GTO, glyceryl trioleate]
phototactic response (response to the light) (bubblegum mutant flies [1]): greatly enhanced response to the light | phototactic response (response to the light) (bubblegum mutant flies [1]; listed as oil): showed a phototactic response | onset of brain degeneration (bubblegum mutant flies [2]; adult mutant flies transferred to medium with 2.5% GTO oil, fed 15 days following emergence): reduced only slightly | age-dependent degeneration phenotype (bubblegum mutant flies [2]; homozygous females fed the oil): similarly prevented | degeneration (bubblegum mutant flies [2]): largely prevented; also recorded: prevented the onset of degeneration | degeneration (bubblegum mutant flies [2]; listed as GTO oil): largely been prevented | lifespan (bubblegum mutant flies [3]): recovered | reduction of the level of C26 in plasm (C26): about 50% | levels of VLCFAs (VLCFAs): becoming normal | levels of VLCFAs (VLCFAs; listed as GTO oil): reduced to normal
